Here are results for 2 compounds from patent US6344487B1, “Treatment of insomnia” (priority 2000, dated 2002).

Counter-ions that a name gives are not always drawn.

Holding throughout (format): in vivo
Holding throughout (details): single patient

For test [1], the system named is insomnia, possibly due to a desynchronization of circadian rhythms ("jet-lag"). Put plainly: Treatment of business traveler with insomnia possibly due to desynchronization of circadian rhythms (jet-lag), follow up. The method, then: (§1) Administration of the compounds should take place within about one hour before bedtime. Again, the onset of the sedative effect will vary with the individual and the dosage prescribed.
The patient, a business traveler, suffers from insomnia, possibly due to a desynchronization of circadian rhythms (“jet-lag”). At the time of consultation, they have normal affect with no depression, anxiety or substance overuse. They are prescribed mirtazapine 10 mg hs.
The patient, a business traveler, suffers from insomnia, possibly due to a desynchronization of circadian rhythms (“jet-lag”). At the time of consultation, they have normal affect with no depression, anxiety or substance overuse. They are prescribed mirtazapine 7.5 mg hs.
The patient, a business traveler, suffers from insomnia, possibly due to a desynchronization of circadian rhythms (“jet-lag”). At the time of consultation, they have normal affect with no depression, anxiety or substance overuse. They are prescribed mirtazapine 5 mg hs.
The patient, a business traveler, suffers from insomnia, possibly due to a desynchronization of circadian rhythms (“jet-lag”). At the time of consultation, they have normal affect with no depression, anxiety or substance overuse. They are prescribed mirtazapine 2 mg hs.
The patient, a business traveler, suffers from insomnia, possibly due to a desynchronization of circadian rhythms (“jet-lag”). At the time of consultation, they have normal affect with no depression, anxiety or substance overuse. They are prescribed nortriptyline 10 mg hs.
The patient, a business traveler, suffers from insomnia, possibly due to a desynchronization of circadian rhythms (“jet-lag”). At the time of consultation, they have normal affect with no depression, anxiety or substance overuse. They are prescribed nortriptyline 7.5 mg hs.
The patient, a business traveler, suffers from insomnia, possibly due to a desynchronization of circadian rhythms (“jet-lag”). At the time of consultation, they have normal affect with no depression, anxiety or substance overuse. They are prescribed nortriptyline 5 mg hs.
The patient, a business traveler, suffers from insomnia, possibly due to a desynchronization of circadian rhythms (“jet-lag”). At the time of consultation, they have normal affect with no depression, anxiety or substance overuse. They are prescribed nortriptyline 2 mg hs.

In test [2] the test system is maintenance insomnia (non-chronic). Put plainly: Treatment of patient with maintenance insomnia (non-chronic), follow up. The method, then: as §1
The patient suffers from maintenance insomnia (non-chronic) At the time of consultation, they have normal affect with no depression, anxiety or substance overuse. They are prescribed mirtazapine 10 mg hs.
The patient suffers from maintenance insomnia (non-chronic) At the time of consultation, they have normal affect with no depression, anxiety or substance overuse. They are prescribed mirtazapine 7.5 mg hs.
The patient suffers from maintenance insomnia (non-chronic) At the time of consultation, they have normal affect with no depression, anxiety or substance overuse. They are prescribed mirtazapine 5 mg hs.
The patient suffers from maintenance insomnia (non-chronic) At the time of consultation, they have normal affect with no depression, anxiety or substance overuse. They are prescribed mirtazapine 2 mg hs.
The patient suffers from maintenance insomnia (non-chronic). At the time of consultation, they have normal affect with no depression, anxiety or substance overuse. They are prescribed nortriptyline 10 mg hs.
The patient suffers from maintenance insomnia (non-chronic). At the time of consultation, they have normal affect with no depression, anxiety or substance overuse. They are prescribed nortriptyline 7.5 mg hs.
The patient suffers from maintenance insomnia (non-chronic) At the time of consultation, they have normal affect with no depression, anxiety or substance overuse. They are prescribed nortriptyline 5 mg hs.
The patient suffers from maintenance insomnia (non-chronic) At the time of consultation, they have normal affect with no depression, anxiety or substance overuse. They are prescribed nortriptyline 2 mg hs.

The test system of the next test is onset insomnia (chronic). Put plainly: Treatment of patient with onset insomnia (chronic), follow up. The method, then:
as §1
The patient suffers from onset insomnia (chronic). At the time of consultation, they have normal affect with no depression, anxiety or substance overuse. They are prescribed mirtazapine 10 mg hs.
The patient suffers from onset insomnia (chronic). At the time of consultation, they have normal affect with no depression, anxiety or substance overuse. They are prescribed mirtazapine 7.5 mg hs.
The patient suffers from onset insomnia (chronic). At the time of consultation, they have normal affect with no depression, anxiety or substance overuse. They are prescribed mitazapine 5 mg hs.
The patient suffers from onset insomnia (chronic). At the time of consultation, they have normal affect with no depression, anxiety or substance overuse. They are prescribed mirtazapine 2 mg hs.
The patient suffers from onset insomnia (chronic). At the time of consultation, they have normal affect with no depression, anxiety or substance overuse. They are prescribed nortriptyline 10 mg hs.
The patient suffers from onset insomnia (chronic). At the time of consultation, they have normal affect with no depression, anxiety or substance overuse. They are prescribed nortriptyline 7.5 mg hs.
The patient suffers from onset insomnia (chronic). At the time of consultation, they have normal affect with no depression, anxiety or substance overuse. They are prescribed nortriptyline 5 mg hs.
The patient suffers from onset insomnia (chronic). At the time of consultation, they have normal affect with no depression, anxiety or substance overuse. They are prescribed nortriptyline 2 mg hs.

Test [3] deals with onset insomnia (non-chronic). Put plainly: Treatment of patient with onset insomnia (non-chronic), follow up. The method, then:
as §1
The patient suffers from onset insomnia (non-chronic). At the time of consultation, they have normal affect with no depression, anxiety or substance overuse. They are prescribed mirtazapine 10 mg hs.
The patient suffers from onset insomnia (non-chronic). At the time of consultation, they have normal affect with no depression, anxiety or substance overuse. They are prescribed mirtazapine 7.5 mg hs.
The patient suffers from onset insomnia (non-chronic). At the time of consultation, they have normal affect with no depression, anxiety or substance overuse. They are prescribed mitazapine 5 mg hs.
The patient suffers from onset insomnia (non-chronic). At the time of consultation, they have normal affect with no depression, anxiety or substance overuse. They are prescribed mirtazapine 2 mg hs.
The patient suffers from onset insomnia (non-chronic). At the time of consultation, they have normal affect with no depression, anxiety or substance overuse. They are prescribed nortriptyline 10 mg hs.
The patient suffers from onset insomnia (non-chronic). At the time of consultation, they have normal affect with no depression, anxiety or substance overuse. They are prescribed nortriptyline 7.5 mg hs.
The patient suffers from onset insomnia (non-chronic). At the time of consultation, they have normal affect with no depression, anxiety or substance overuse. They are prescribed nortriptyline 5 mg hs.
The patient suffers from onset insomnia (non-chronic). At the time of consultation, they have normal affect with no depression, anxiety or substance overuse. They are prescribed nortriptyline 2 mg hs.

Test [4] concerns maintenance insomnia (chronic). Put plainly: Treatment of patient with maintenance insomnia (chronic), follow up. The method, then: as §1
The patient suffers from maintenance insomnia (chronic). At the time of consultation, they have normal affect with no depression, anxiety or substance overuse. They are prescribed mirtazapine 10 mg hs.
The patient suffers from maintenance insomnia (chronic). At the time of consultation, they have normal affect with no depression, anxiety or substance overuse. They are prescribed mirtazapine 7.5 mg hs.
The patient suffers from maintenance insomnia (chronic). At the time of consultation, they have normal affect with no depression, anxiety or substance overuse. They are prescribed mirtazapine 5 mg hs.
The patient suffers from maintenance insomnia (chronic). At the time of consultation, they have normal affect with no depression, anxiety or substance overuse. They are prescribed mirtazapine 2 mg hs.
The patient suffers from maintenance insomnia (chronic). At the time of consultation, they have normal affect with no depression, anxiety or substance overuse. They are prescribed nortriptyline 10 mg hs.
The patient suffers from maintenance insomnia (chronic). At the time of consultation, they have normal affect with no depression, anxiety or substance overuse. They are prescribed nortriptyline 7.5 mg hs.
The patient suffers from maintenance insomnia (chronic). At the time of consultation, they have normal affect with no depression, anxiety or substance overuse. They are prescribed nortriptyline 5 mg hs.
The patient suffers from maintenance insomnia (chronic). At the time of consultation, they have normal affect with no depression, anxiety or substance overuse. They are prescribed nortriptyline 2 mg hs.

For the compound `CNCCC=C1c2ccccc2CCc2ccccc21` [nortriptyline, 1 propanamine,3-(10,11-dihydro-5H-dibenzo[a,d]cyclohepten-5-ylidene)-N-methyl-, hydrochloride], the “relief of insomnia at follow up” value is “relieves the insomnia and has their sleeping well” in test [1] (2 mg hs); “relieves the insomnia and has them sleeping well” in test [1] (5 mg hs); “relieves the insomnia and has them sleeping well” in test [1] (7.5 mg hs); “relieves the insomnia and has their sleeping well” in test [1] (10 mg hs); “relieves the insomnia and has their sleeping well” in test [2] (2 mg hs); “relieves the insomnia and has them sleeping well” in test [2] (5 mg hs). In addition, the “relief of insomnia at follow up” value is “relieves the insomnia and has them sleeping well” in test [2] (7.5 mg hs); “relieves the insomnia and has their sleeping well” in test [2] (10 mg hs); “relieves the insomnia and has their sleeping well” in test [4] (2 mg hs); “relieves the insomnia and has them sleeping well” in test [4] (5 mg hs); “relieves the insomnia and has them sleeping well” in test [4] (7.5 mg hs); “relieves the insomnia and has their sleeping well” in test [4] (10 mg hs). Further, the “relief of onset insomnia at follow up” value in the test on onset insomnia (chronic) (2 mg hs) is “relieves the onset insomnia and has their sleeping well”; in the test on onset insomnia (chronic) (5 mg hs), “relieves the onset insomnia and has them sleeping well”; in the test with onset insomnia (chronic) (7.5 mg hs), “relieves the onset insomnia and has them sleeping well”; in the test with onset insomnia (chronic) (10 mg hs), “relieves the onset insomnia and has their sleeping well”; in test [3] (2 mg hs), “relieves the onset insomnia and has their sleeping well”; in test [3] (5 mg hs), “relieves the onset insomnia and has them sleeping well”. The “relief of onset insomnia at follow up” value is “relieves the onset insomnia and has them sleeping well” in test [3] (7.5 mg hs); “relieves the onset insomnia and has their sleeping well” in test [3] (10 mg hs).

For `CN1CCN2c3ncccc3Cc3ccccc3C2C1` (stereo not shown) [mirtazapine, 1,2,3,4,10,14b-hexahydro-2-methylpyrazino [2,1-a]pyrido [2,3-c]benzazepine], the “relief of insomnia at follow up” value in test [1] (2 mg hs) was “relieves the insomnia and has them sleeping well”; in test [1] (5 mg hs), “relieves the insomnia and has them sleeping well”; in test [1] (7.5 mg hs), “relieves the insomnia and has them sleeping well”; in test [1] (10 mg hs) it was “relieves the insomnia and has their sleeping well”; in test [2] (2 mg hs) it was “relieves the insomnia and has them sleeping well”; in test [2] (5 mg hs), “relieves the insomnia and has them sleeping well”. The “relief of insomnia at follow up” value in test [2] (7.5 mg hs) was “relieves the insomnia and has them sleeping well”; in test [2] (10 mg hs), “relieves the insomnia and has their sleeping well”; in test [4] (2 mg hs), “relieves the insomnia and has them sleeping well”; in test [4] (5 mg hs), “relieves the insomnia and has them sleeping well”; in test [4] (7.5 mg hs), “relieves the insomnia and has them sleeping well”; in test [4] (10 mg hs) it was “relieves the insomnia and has their sleeping well”. The “relief of onset insomnia at follow up” value in the test on onset insomnia (chronic) (2 mg hs) was “relieves the onset insomnia and has them sleeping well”; in the test on onset insomnia (chronic) (5 mg hs), “relieves the onset insomnia and has them sleeping well”; with onset insomnia (chronic) (7.5 mg hs), “relieves the onset insomnia and has them sleeping well”; with onset insomnia (chronic) (10 mg hs), “relieves the onset insomnia and has their sleeping well”; in test [3] (2 mg hs), “relieves the onset insomnia and has them sleeping well”; in test [3] (5 mg hs) it was “relieves the onset insomnia and has them sleeping well”. Further, the “relief of onset insomnia at follow up” value in test [3] (7.5 mg hs) was “relieves the onset insomnia and has them sleeping well”; in test [3] (10 mg hs), “relieves the onset insomnia and has their sleeping well”.
